Patent US8361728B2, “Method for diagnosis of glutamate dehydrogenase disorders” (priority 2008, dated 2013)
“And” between values parts separate entries of the source, which are not always exact repeats. Identical values can stand only once. Like-named read-outs stand apart in the source and are kept apart here. Each block holds one molecule with its values, some of them ahead of it.

Tests used:
wild-type hGDH1 = target: T1, wild-type hGDH1 (Homo sapiens, UniProt P00367); assay: Inhibition of purified recombinant GDH by female steroidal hormones; assay type: biochemical
T1 construct: made in house; host or cells: Sf21 insect cells, baculovirus
T1 sequence (P00367 54-558): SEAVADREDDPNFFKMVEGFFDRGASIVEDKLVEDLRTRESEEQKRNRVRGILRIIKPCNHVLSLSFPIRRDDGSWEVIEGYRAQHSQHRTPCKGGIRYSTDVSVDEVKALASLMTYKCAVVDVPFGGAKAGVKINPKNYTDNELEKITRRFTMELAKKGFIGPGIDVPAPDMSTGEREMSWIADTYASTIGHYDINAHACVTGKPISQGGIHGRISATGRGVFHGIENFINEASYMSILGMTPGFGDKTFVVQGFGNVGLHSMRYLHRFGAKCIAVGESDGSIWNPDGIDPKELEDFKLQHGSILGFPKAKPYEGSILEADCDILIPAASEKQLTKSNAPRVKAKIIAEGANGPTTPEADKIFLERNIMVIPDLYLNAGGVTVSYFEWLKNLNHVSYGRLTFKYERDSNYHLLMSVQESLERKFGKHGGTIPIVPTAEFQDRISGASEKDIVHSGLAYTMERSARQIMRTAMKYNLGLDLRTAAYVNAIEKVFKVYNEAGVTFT
Description: (§1) For this, a study was performed on the interaction of estrogens with the hGDH2 variant as well as with the wild type-hGDH2 and hGDH1 obtained by expression of the corresponding cDNAs in Sf21 cells.
(§2) Production and Purification of Recombinant hGDHs. […] The produced recombinant hGDHs were purified from Sf21 cell extracts using a previously described method that involves Ammonium Sulfate fractionation, hydrophobic interaction and hydroxyapatite chromatography. […] All hGDH proteins studied were produced and analyzed in parallel.
(§3) Enzyme Assays. GDH activity was assayed spectrophotometrically at 25° C. in the direction of reductive amination of α-ketoglutarate. Initial rates (enzyme velocity at the interval during which the change in absorbance maintained linearity) were recorded. […] Regulation of the human recombinant GDHs by allosteric stimulators was studied by adding to the reaction ADP or L-leucine in various concentrations. Inhibition by GTP was studied by adding this compound in various concentrations to the reaction either in the absence of allosteric modulators or in the presence of 0.1 mM or 1.0 mM ADP. For the heat inactivation studies, samples containing about 50 μg/ml purified enzyme were incubated at 47.5° C. Aliquots were removed at specified time intervals and assayed immediately for enzyme activity.
(§4) Purification of Recombinant Wild-Type and Mutant hGDHs—Using extracts of Sf21 cells expressing wild-type hGDH1 or hGDH2, or the Arg443Ser hGDH1 mutant were purified to homogeneity using a previously described procedure (Kanavouras et al., 2007). Also, as described below, the Arg443Ser/Gly456Ala double mutant and the Ser409Arg/Asp single mutants of hGDH1 and the Ser445Ala mutant of hGDH2 were studied after they were purified to homogeneity using extracts of Sf21 cells expressing these proteins.

[1] = target: T2, Ser443-hGDH1 (Arg443Ser hGDH1 mutant) (Homo sapiens, UniProt P00367, R496S); assay: as above; assay type: biochemical
T2 construct: made in house; host or cells: Sf21 insect cells
T2 sequence (P00367 54-558 R496S): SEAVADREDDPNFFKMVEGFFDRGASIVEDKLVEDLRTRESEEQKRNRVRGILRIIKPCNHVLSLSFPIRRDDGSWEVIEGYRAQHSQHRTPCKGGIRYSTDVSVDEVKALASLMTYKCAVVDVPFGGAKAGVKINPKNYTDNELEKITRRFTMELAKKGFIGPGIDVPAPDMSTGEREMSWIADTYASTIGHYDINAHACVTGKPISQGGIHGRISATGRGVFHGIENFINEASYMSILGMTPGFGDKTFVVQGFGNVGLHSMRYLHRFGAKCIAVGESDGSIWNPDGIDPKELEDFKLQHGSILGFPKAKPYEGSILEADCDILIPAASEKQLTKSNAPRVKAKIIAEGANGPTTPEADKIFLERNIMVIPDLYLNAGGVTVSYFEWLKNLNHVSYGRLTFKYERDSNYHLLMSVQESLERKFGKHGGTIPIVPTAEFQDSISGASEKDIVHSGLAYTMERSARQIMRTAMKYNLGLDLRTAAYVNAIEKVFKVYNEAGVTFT
Source text: (§5) Production and Purification of Recombinant hGDHs.
as §4, with “proteins. Enzyme recoveries and degree of purification of the final products were similar to those of the wild-type hGDH1 and hGDH2.” for “proteins.”
This was further tested by studying a double mutant of hGDH1 that, in addition to the Arg443Ser change, carries the Gly456Ala polymorphism that confers resistance to GTP. […] That substitution of Ser for Arg443 is responsible for the sensitivity of the wild-type hGDH2 to estrogens was confirmed by reverse mutagenesis experiments in which the Ser443 of hGDH2 was replaced by Arg.

hGDH2 [2] = target: T3, hGDH2 (Homo sapiens, UniProt P49448); assay: Allosteric stimulation of recombinant GDH by ADP or L-leucine; assay type: biochemical; conditions: positive modulation
T3 construct: made in house; host or cells: Sf21 insect cells, baculovirus
T3 sequence (P49448 54-558): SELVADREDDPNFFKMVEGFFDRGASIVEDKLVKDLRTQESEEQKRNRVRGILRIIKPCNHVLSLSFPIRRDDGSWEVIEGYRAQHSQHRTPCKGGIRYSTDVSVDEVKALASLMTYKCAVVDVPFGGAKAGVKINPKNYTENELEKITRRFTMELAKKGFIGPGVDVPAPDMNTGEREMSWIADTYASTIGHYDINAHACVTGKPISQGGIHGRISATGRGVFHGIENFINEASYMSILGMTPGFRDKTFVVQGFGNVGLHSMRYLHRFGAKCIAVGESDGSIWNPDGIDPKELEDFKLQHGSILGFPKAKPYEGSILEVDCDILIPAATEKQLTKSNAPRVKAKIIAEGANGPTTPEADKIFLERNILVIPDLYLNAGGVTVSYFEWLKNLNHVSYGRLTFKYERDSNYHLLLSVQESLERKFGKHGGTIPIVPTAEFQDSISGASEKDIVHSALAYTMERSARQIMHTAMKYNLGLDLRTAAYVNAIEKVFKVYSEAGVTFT
Description: as §2, §3

Ala445-hGDH2 [3] = target: T4, Ala445-hGDH2 (Homo sapiens, UniProt P49448, S498A); assay: as above; assay type: biochemical; set-up: made in house; host or cells: Sf21 insect cells, baculovirus; conditions: positive modulation
T4 sequence (P49448 54-558 S498A): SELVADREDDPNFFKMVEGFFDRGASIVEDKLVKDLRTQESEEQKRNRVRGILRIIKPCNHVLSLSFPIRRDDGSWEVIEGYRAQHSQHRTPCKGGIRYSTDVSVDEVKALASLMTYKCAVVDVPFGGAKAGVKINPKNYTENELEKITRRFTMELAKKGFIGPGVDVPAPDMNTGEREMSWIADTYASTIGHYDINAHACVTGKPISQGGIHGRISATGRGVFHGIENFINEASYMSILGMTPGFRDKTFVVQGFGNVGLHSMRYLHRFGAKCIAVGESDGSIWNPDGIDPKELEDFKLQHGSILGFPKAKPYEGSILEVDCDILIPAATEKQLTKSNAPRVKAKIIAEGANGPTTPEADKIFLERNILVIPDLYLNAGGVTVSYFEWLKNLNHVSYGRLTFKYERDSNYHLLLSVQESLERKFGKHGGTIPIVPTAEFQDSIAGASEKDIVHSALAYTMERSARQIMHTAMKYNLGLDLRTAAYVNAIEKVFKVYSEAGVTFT
Description: as §2, §3

hGDH1 [4] = target: T5, hGDH1 (Homo sapiens, UniProt P00367); assay: as above; assay type: biochemical; set-up: made in house; host or cells: Sf21 insect cells, baculovirus; conditions: positive modulation
T5 sequence (P00367 54-558): as the sequence (P00367 54-558) above
Description: as §2, §3

wild-type hGDH2 = target: T6, wild-type hGDH2 (Homo sapiens, UniProt P49448); assay: Inhibition of purified recombinant GDH by female steroidal hormones; assay type: biochemical; conditions: for relative inhibition of hGDH2 versus hGDH1: in words
T6 construct: made in house; host or cells: Sf21 insect cells, baculovirus
T6 sequence (P49448 54-558): as the sequence (P49448 54-558) above
Description: as §1, §2, §3, §4

Ser445Ala hGDH2 variant = target: T7, Ser445Ala hGDH2 variant (Homo sapiens, UniProt P49448, S498A); assay: Inhibition of purified recombinant GDH by estrogens; assay type: biochemical; conditions: baseline conditions (absence of allosteric effectors)
T7 construct: made in house; host or cells: Sf21 insect cells, baculovirus
T7 sequence (P49448 54-558 S498A): as the sequence (P49448 54-558 S498A) above
Description: as §1, §5

hGDH2 [5] = target: T3, hGDH2; assay: GTP inhibition of purified recombinant GDH activity; assay type: biochemical
Description: (§6) To investigate whether the Ser445Ala change modified the protein function of hGDH2, an Ala445-hGDH2 variant was obtained in recombinant form by expressing in Sf21 cells using the baculovirus expression system a GLUD2 cDNA with G instead of 1492T. […] The specific basal activity of the variant was concentration-dependent (FIGS. 6&7), as also previously shown for hGDH2 but not for hGDH1. At enzyme concentrations of about 5 μg/ml, the basal specific activity of the variant approached that of hGDH1 (FIGS. 6 & 7), but in contrast to the latter this activity was resistant to suppression by GTP (Table 3).
as §5

hGDH2 [6] = target: T3, hGDH2; conditions: Zaganas and Plaitakis, 2002; read-out: IC50 (GTP inhibition); cited from earlier work
Ala445-hGDH2 [7] = target: T4, Ala445-hGDH2; assay: GTP inhibition of purified recombinant GDH activity; assay type: biochemical; set-up: made in house; host or cells: Sf21 insect cells, baculovirus
Description: as §6, §5

hGDH1 [8] = target: T5, hGDH1; assay: as above; assay type: biochemical; set-up: made in house; host or cells: Sf21 insect cells, baculovirus
Description: as §6, §5

hGDH1 [9] = target: T5, hGDH1; set-up: made in house; host or cells: Sf21 insect cells, baculovirus; conditions: Zaganas and Plaitakis, 2002; read-out: IC50 (GTP inhibition); cited from earlier work
Ala445-hGDH2 [10] = target: T4, Ala445-hGDH2
Description: as §2
as §3, with “GDH activity was assayed spectrophotometrically at 25° C. in the direction of reductive amination of α-ketoglutarate.” left out

Ser445-hGDH2 = Ser445-hGDH2 (Homo sapiens, UniProt P49448)
Ser445-hGDH2, sequence (P49448 54-558): as the sequence (P49448 54-558) above
Description: as §2
as §3, with “GDH activity was assayed spectrophotometrically at 25° C. in the direction of reductive amination of α-ketoglutarate.” left out

hGDH1 [11] = target: T5, hGDH1
Description: as §2
as §3, with “GDH activity was assayed spectrophotometrically at 25° C. in the direction of reductive amination of α-ketoglutarate.” left out

[12] = No ADP (baseline conditions), read-out: IC50

EC50 (hGDH2 [2]; read-out: ADP SC50): 68.5 ± 2.3 µM | EC50 (Ala445-hGDH2 [3]; read-out: ADP SC50): 58.2 ± 5.5 µM | EC50 (hGDH1 [4]; read-out: ADP SC50): 22.4 ± 2.1 µM
SMILES: Nc1ncnc2c1ncn2[C@@H]1O[C@H](COP(=O)(O)OP(=O)(O)O)[C@@H](O)[C@H]1O [ADP]

Hill Coefficient (hGDH2 [5]; 0.1 mM ADP): 1.06 ± 0.16 | IC50 (hGDH2 [5]; 0.1 mM ADP): 12.2 ± 2.65 µM | Hill Coefficient (hGDH2 [5]; 1 mM ADP): 0.82 ± 0.11 | IC50 (hGDH2 [5]; 1 mM ADP): 204 ± 36.4 µM | Hill Coefficient (hGDH2 [5]; No ADP): 0.72 ± 0.05 | IC50 (hGDH2 [5]; No ADP): 40.1 ± 4.46 µM | Hill Coefficient (Ala445-hGDH2 [7]; 0.1 mM ADP): 1.01 ± 0.09 | IC50 (Ala445-hGDH2 [7]; 0.1 mM ADP): 24.4 ± 2.62 µM | Hill Coefficient (Ala445-hGDH2 [7]; 1 mM ADP): 0.71 ± 0.04 | IC50 (Ala445-hGDH2 [7]; 1 mM ADP): 258 ± 42.2 µM | Hill Coefficient (Ala445-hGDH2 [7]; No ADP): 0.80 ± 0.05 | IC50 (Ala445-hGDH2 [7]; No ADP): 29.1 ± 4.48 µM | Hill Coefficient (hGDH1 [8]; 0.1 mM ADP): 2.13 ± 0.15 | IC50 (hGDH1 [8]; 0.1 mM ADP): 1.61 ± 0.02 µM | Hill Coefficient (hGDH1 [8]; 1 mM ADP): 1.94 ± 0.07 | IC50 (hGDH1 [8]; 1 mM ADP): 18.5 ± 0.49 µM | Hill Coefficient (hGDH1 [8]; No ADP): 1.51 ± 0.07 | IC50 (hGDH1 [8]; No ADP): 0.31 ± 0.03 µM
SMILES: Nc1nc2c(ncn2[C@@H]2O[C@H](COP(=O)(O)OP(=O)(O)OP(=O)(O)O)[C@@H](O)[C@H]2O)c(=O)[nH]1 [GTP]
IC50 (hGDH2 [6]): > 200 µM | IC50 (hGDH1 [9]): 0.1 to 0.3 µM

EC50 (hGDH2 [2]; read-out: L-leucine SC50): 1010 ± 213 µM | EC50 (Ala445-hGDH2 [3]; read-out: L-leucine SC50): 955 ± 45 µM | EC50 (hGDH1 [4]; read-out: L-leucine SC50): 860 ± 139 µM
SMILES: CC(C)C[C@H](N)C(=O)O [L-leucine]

IC50 (wild-type hGDH1; 0.1 mM ADP, read-out: IC50): 316 ± 26.1 µM | IC50 (wild-type hGDH1; [12]): 145 ± 18.8 µM | IC50 (wild-type hGDH2; 0.1 mM ADP): 189 ± 17.9 µM | IC50 (wild-type hGDH2; No ADP (baseline conditions)): 11.3 ± 0.74 µM | relative inhibition of hGDH2 versus hGDH1 (wild-type hGDH2): inhibited hGDH2 more strongly than hGDH | relative inhibition of hGDH2 versus hGDH1 (wild-type hGDH2; listed as oestriol): inhibited hGDH2 more strongly than hGDH1 | IC50 ([1]; 0.1 mM ADP, read-out: IC50): 2.43 ± 0.05 µM
SMILES: C[C@]12CC[C@@H]3c4ccc(O)cc4CC[C@H]3[C@@H]1C[C@@H](O)[C@@H]2O [Oestriol]

IC50 (wild-type hGDH1; 0.1 mM ADP, read-out: IC50): 596 ± 50.1 µM | IC50 (wild-type hGDH1; [12]): 219 ± 7.99 µM | IC50 (wild-type hGDH2; 0.1 mM ADP): 392 ± 8.91 µM | IC50 (wild-type hGDH2; No ADP (baseline conditions)): 12.3 ± 2.63 µM | relative inhibition of hGDH2 versus hGDH1 (wild-type hGDH2): inhibited hGDH2 more strongly than hGDH | relative inhibition of hGDH2 versus hGDH1 (wild-type hGDH2; listed as progesterone): inhibited hGDH2 more strongly than hGDH1 | IC50 ([1]; 0.1 mM ADP, read-out: IC50): 8.62 ± 1.23 µM
SMILES: CC(=O)[C@H]1CC[C@H]2[C@@H]3CCC4=CC(=O)CC[C@]4(C)[C@H]3CC[C@]12C [Progesterone]

The remaining lines, values behind:

SMILES: C[C@]12CC[C@@H]3c4ccc(O)cc4CC[C@H]3[C@@H]1CC[C@@H]2O [17 b-Estradiol, 17 beta-estradiol]
IC50 (wild-type hGDH1; IC50, 0.1 mM ADP): 69.2 ± 1.3 µM | IC50 (wild-type hGDH1; IC50, No ADP (baseline conditions)): 26.9 µM | IC50 [1]: 2.22 ± 0.76 µM

SMILES: CC/C(=C(/CC)c1ccc(O)cc1)c1ccc(O)cc1 [DES, diethylstilbestrol]
IC50 (wild-type hGDH1; 0.1 mM ADP, read-out: IC50): 7.07 ± 0.4 µM | IC50 (wild-type hGDH1; [12]): 1.67 ± 0.02 µM | IC50 (wild-type hGDH1; baseline conditions (absence of allosteric effectors), read-out: IC50±S.E.): 1.53 µM | IC50 (wild-type hGDH2; 0.1 mM ADP): 1.05 ± 0.09 µM | IC50 (wild-type hGDH2; No ADP (baseline conditions)): 0.094 µM and 0.09 µM | fold higher sensitivity/affinity of hGDH2 than hGDH1 (wild-type hGDH2; baseline conditions, hGDH2 versus hGDH1): > 15 fold and ~18 fold | effect of inhibitor on Km for α-ketoglutarate, NH3 or glutamate (wild-type hGDH2; inhibitory concentrations of DES, wild-type hGDH1 and hGDH2): not altered | IC50 ([1]; 0.1 mM ADP, read-out: IC50): 0.51 ± 0.05 µM | IC50 (Ser445Ala hGDH2 variant): 0.019 ± 0.003 µM

SMILES: N[C@@H](CCC(=O)O)C(=O)O [Glutamate]
Km (Ala445-hGDH2 [10]; read-out: Km Glutamate): 6.8 ± 1.9 mM | Km (Ser445-hGDH2; read-out: Km Glutamate): 10.7 ± 1.77 mM | Km (hGDH1 [11]; read-out: Km Glutamate): 12.4 ± 1.48 mM

SMILES: O=C(O)CCC(=O)C(=O)O [α-Ketoglutarate]
Km (Ala445-hGDH2 [10]; read-out: Km α-Ketoglutarate): 2.67 ± 0.31 mM | Km (Ser445-hGDH2; read-out: Km α-Ketoglutarate): 2.07 ± 0.29 mM | Km (hGDH1 [11]; read-out: Km α-Ketoglutarate): 2.01 ± 0.18 mM
